Measured values: patent publication US12006317B1, “5-substituted aminopyrimido [6′,1′:2,3] imidazo [4,5-c] [2,6] naphthyridine compounds as CK2 inhibitors” (KING FAISAL UNIVERSITY, priority 2023, dated 2024)
pIC50: −log10 of the molar value.

Legend:
[1] = test system: H1299 (lung) cancer cells; assay: In vitro cytotoxic activity MTT assay, H1299; assay type: cell-based; conditions: Homo sapiens, NCI-H1299, cells exposed for 96 hours, read-out: IC50, 50% inhibition of cell proliferation
Protocol: (§1) Compounds 1-12 were screened for their in vitro cytotoxic activity utilizing a 3-(4,5-dimethyl-thiazol-2-yl)-2,5-diphenyltetrazolium bromide (MTT) assay against selected cancer human cell lines consisting of PC3 (prostate), HCT116 (colon), A375 (melanoma), H1299 (lung), MIAPaCa-2 (pancreas), HL60 (leukemia), MCF7 (breast), MDA-MB-231 (breast) (T. Mosmann, J. Immmol. Meth., 1983, 65, 55-63). The cells were cultured at 37° C. in RMPI1640 medium supplemented with 10% fetal bovine serum, 50 IU/mL penicillin, and 50 μg/mL streptomycin in a 5% CO2 incubator. All cells were sub-cultured 3 times/week by trypsinisation. Viable cells were seeded and allowed to adhere for 12 h before a test drug was added in 96-well plates at an initial density of 1.0×10^5 cells/mL. Tumour cell lines were separately exposed to various concentrations of the tested compounds followed by incubation at a temperature of 37° C. during 96 h inside a medium of fresh RMPI 1640. Cells were subsequently incubated at 37° C. using MTT at 0.5 mg/mL during 4 h. After removal of supernatant, formazan crystals were dissolved in isopropanol and the optical density was measured at 570 nm. CX-4945 was used as a positive control.

[2] = test system: MIAPaCa-2 (pancreas) cancer cells; assay: In vitro cytotoxic activity MTT assay, MIAPaCa-2; assay type: cell-based; conditions: Homo sapiens, MIA PaCa-2, cells exposed for 96 hours, read-out: IC50, 50% inhibition of cell proliferation
Protocol: as §1

[3] = test system: MDA-MB-231 (breast) cancer cells; assay: In vitro cytotoxic activity MTT assay, MDA-MB-231; assay type: cell-based; conditions: Homo sapiens, cells exposed for 96 hours, read-out: IC50, 50% inhibition of cell proliferation
Protocol: as §1

[4] = target: T1, recombinant human CK2 (RRββ-holoenzyme) (Homo sapiens, UniProt P68400); assay: CK2 Kinase Assay (33P-ATP, substrate peptide RRRDDDSDDD); assay type: biochemical; conditions: final ATP concentration 15 μM, 10 min at 30° C.; read-out: protein kinase CK2 IC50
T1 construct: purchased Millipore
T1 sequence (P68400 whole entry): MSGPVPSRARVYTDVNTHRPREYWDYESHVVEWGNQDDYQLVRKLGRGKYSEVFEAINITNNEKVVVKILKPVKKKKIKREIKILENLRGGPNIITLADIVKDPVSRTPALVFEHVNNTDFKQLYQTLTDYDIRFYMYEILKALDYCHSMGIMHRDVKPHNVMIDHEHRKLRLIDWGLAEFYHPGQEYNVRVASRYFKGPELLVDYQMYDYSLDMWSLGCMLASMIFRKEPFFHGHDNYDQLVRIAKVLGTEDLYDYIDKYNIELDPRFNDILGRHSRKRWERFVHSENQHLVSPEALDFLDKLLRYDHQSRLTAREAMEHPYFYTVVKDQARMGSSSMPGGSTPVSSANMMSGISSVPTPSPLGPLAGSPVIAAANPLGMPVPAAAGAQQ
T1 sequence (P67870 whole entry partner): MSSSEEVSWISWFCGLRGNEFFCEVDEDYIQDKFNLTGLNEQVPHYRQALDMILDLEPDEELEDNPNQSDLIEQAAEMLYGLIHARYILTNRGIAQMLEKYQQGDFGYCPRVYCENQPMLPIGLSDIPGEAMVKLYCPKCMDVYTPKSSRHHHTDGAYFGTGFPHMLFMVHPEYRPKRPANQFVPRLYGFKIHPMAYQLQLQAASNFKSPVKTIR
Protocol: CK2 Kinase Assay was conducted using the protocol as described in Pierre F. et al; J. Med. Chem. 2011, 54, 635-654. The tested compounds in aqueous solution were added at a volume of 10 μL to a reaction mixture comprising 10 μL of assay dilution buffer (ADB; 20 mM MOPS, pH 7.2, 25 mM β-glycerol phosphate, 5 mM EGTA, 1 mM sodium orthovanadate, and 1 mM dithiothreitol), 10 μL of substrate peptide (RRRDDDSDDD, dissolved in ADB at a concentration of 1 mM), 10 μL of recombinant human CK2 (RRββ-holoenzyme, 25 ng dissolved in ADB; Millipore). Reactions were initiated by the addition of 10 μL of ATP solution (90% 75 mM MgCl2, 75 μM ATP (final ATP concentration:15 μM) dissolved in ADB; 10% [γ-33P] ATP (stock 1 mCi/100 μL; 3000 Ci/mmol (Perkin-Elmer) and maintained for 10 min at 30° C. The reactions were quenched with 100 μL of 0.75% phosphoric acid and then transferred to and filtered through a phosphor cellulose filter plate (Millipore). After washing each well five times with 0.75% phosphoric acid, the plate was dried under vacuum for 5 min and, following the addition of 15 μL of scintillation fluid to each well, the residual radioactivity was measured using a Wallac […]. The IC50 values were derived from eight concentrations of test inhibitors.

[5] = test system: MCF7 (breast) cancer cells; assay: In vitro cytotoxic activity MTT assay, MCF7; assay type: cell-based; conditions: Homo sapiens, cells exposed for 96 hours, read-out: IC50, 50% inhibition of cell proliferation
Protocol: as §1

[6] = test system: PC3 (prostate) cancer cells; assay: In vitro cytotoxic activity MTT assay, PC3; assay type: cell-based; conditions: Homo sapiens, Prostate cell, cells exposed for 96 hours, read-out: IC50, 50% inhibition of cell proliferation
Protocol: as §1

[7] = test system: HL60 (leukemia) cancer cells; assay: In vitro cytotoxic activity MTT assay, HL60; assay type: cell-based; conditions: Homo sapiens, HL-60, cells exposed for 96 hours, read-out: IC50, 50% inhibition of cell proliferation
Protocol: as §1

[8] = test system: A375 (melanoma) cancer cells; assay: In vitro cytotoxic activity MTT assay, A375; assay type: cell-based; conditions: Homo sapiens, A-375, cells exposed for 96 hours, read-out: IC50, 50% inhibition of cell proliferation
Protocol: as §1

[9] = test system: HCT116 (colon) cancer cells; assay: In vitro cytotoxic activity MTT assay, HCT116; assay type: cell-based; conditions: Homo sapiens, HCT-116, cells exposed for 96 hours, read-out: IC50, 50% inhibition of cell proliferation
Protocol: as §1

Structure (SMILES): Clc1cccc(Nc2nc3c(nc4ccncn43)c3cnccc23)c1 [Compound 1, N-(3-chlorophenyl)pyrimido[6′,1′:2,3]imidazo[4,5-c][2,6]naphthyridin-5-amine]
- pIC50 [1]: 5.68
- pIC50 [2]: 6.05
- pIC50 [3]: 5.41
- pIC50 [4]: 7.92
- pIC50 [5]: 5.29
- pIC50 [6]: 5.89
- pIC50 [7]: 5.47
- pIC50 [8]: 5.55
- pIC50 [9]: 5.92
